Test results from ChEMBL document CHEMBL3046127, “Homo- and hetero-dimers of inactive organophosphorous group binding at dual sites of AChE” (Bioorg Med Chem Lett, 2011).

How the values were obtained:
Lipaphis erysimi = assay: Insecticidal activity against Lipaphis erysimi (mustard aphids) assessed as insect mortality at 300 mg/mL; assay type: functional; parameters: dose or concentration left out as unconfirmed; settings: in Brassica
Tetranychus cinnabarinus = assay: Insecticidal activity against Tetranychus cinnabarinus (carmine spider mite) assessed as insect mortality at 300 mg/mL; assay type: functional; parameters: dose or concentration left out as unconfirmed
Acetylcholinesterase [1] = target: Acetylcholinesterase (Musca domestica, UniProt Q7YWJ9); assay: Inhibition of acetylcholinesterase in Musca domestica (house fly) brain by Ellman's method
Acetylcholinesterase [2] = target: Acetylcholinesterase (Drosophila melanogaster, UniProt P07140); assay: Inhibition of acetylcholinesterase in Drosophila melanogaster brain by Ellman's method
Acetylcholinesterase (Drosophila melanogaster, UniProt P07140), sequence (P07140 whole entry): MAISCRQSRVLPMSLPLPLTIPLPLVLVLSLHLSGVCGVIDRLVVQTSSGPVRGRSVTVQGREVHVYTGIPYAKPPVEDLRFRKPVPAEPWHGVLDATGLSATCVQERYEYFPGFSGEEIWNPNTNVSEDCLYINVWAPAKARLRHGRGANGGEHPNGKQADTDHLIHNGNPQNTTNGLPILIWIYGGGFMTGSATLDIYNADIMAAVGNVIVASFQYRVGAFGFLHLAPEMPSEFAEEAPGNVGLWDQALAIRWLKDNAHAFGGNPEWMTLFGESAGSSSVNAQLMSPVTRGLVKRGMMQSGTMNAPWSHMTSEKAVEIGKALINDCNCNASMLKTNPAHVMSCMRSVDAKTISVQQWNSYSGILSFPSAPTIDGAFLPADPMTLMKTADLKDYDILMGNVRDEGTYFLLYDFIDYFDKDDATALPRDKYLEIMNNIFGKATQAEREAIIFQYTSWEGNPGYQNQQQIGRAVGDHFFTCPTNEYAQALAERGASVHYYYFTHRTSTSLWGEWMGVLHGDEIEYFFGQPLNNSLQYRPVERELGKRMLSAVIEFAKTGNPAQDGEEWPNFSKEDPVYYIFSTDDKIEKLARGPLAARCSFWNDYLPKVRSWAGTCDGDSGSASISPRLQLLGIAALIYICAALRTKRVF

Acetylcholinesterase (Musca domestica, UniProt Q7YWJ9), sequence (Q7YWJ9 whole entry): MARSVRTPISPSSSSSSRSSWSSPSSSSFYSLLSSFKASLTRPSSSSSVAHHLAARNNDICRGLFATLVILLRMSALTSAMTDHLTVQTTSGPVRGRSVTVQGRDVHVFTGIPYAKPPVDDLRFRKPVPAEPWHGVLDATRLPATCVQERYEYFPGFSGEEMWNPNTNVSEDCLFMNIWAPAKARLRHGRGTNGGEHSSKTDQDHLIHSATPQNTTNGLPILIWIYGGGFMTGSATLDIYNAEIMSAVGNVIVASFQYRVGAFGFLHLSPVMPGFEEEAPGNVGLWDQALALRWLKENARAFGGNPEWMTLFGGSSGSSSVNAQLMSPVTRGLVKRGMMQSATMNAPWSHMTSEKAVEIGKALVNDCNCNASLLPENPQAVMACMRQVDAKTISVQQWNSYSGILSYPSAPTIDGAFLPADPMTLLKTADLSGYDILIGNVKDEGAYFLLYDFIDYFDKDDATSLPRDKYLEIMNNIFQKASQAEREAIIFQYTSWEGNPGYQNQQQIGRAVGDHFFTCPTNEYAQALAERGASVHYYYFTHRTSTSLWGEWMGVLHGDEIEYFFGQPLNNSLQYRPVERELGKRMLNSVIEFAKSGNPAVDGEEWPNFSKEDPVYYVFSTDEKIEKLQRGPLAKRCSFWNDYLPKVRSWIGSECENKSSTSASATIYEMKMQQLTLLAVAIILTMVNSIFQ

Compound | mortality (Lipaphis erysimi) [%] | mortality (Tetranychus cinnabarinus) [%] | IC50 (Acetylcholinesterase [1]) [µM] | IC50 (Acetylcholinesterase [2]) [µM]
CCOP(=O)(OCC)SCCCCCCCCN1C(=O)c2ccccc2C1=O | 62.5 | 85 | 13.8 | 4.5
CCOP(=O)(OCC)SCCCCCCCCCN1C(=O)c2ccccc2C1=O | 88.3 | 77.6 | 267 | 37.5
CCOP(=O)(OCC)SCCCCCCCCCCN1C(=O)c2ccccc2C1=O | 92.8 | 92.2 | 80.9 | 113
CCOP(=O)(OCC)SCCCSP(=O)(OCC)OCC | 90.8 | 98.4 | 32.4 | 1.64
CCOP(=O)(OCC)SCCCCSP(=O)(OCC)OCC | 89.4 | 82 | 107 | 8.07
CCOP(=O)(OCC)SCCCCCSP(=O)(OCC)OCC | 42.6 | 85.7 | 4600 | 12.3
CCOP(=O)(OCC)SCCCCCCSP(=O)(OCC)OCC | 95.4 | 92.4 | 8.9 | 0.87
CCOP(=O)(OCC)SCCCCCCCSP(=O)(OCC)OCC | 97.3 | 83.3 | 2100 | 10.2
CCOP(=O)(OCC)SCCCCCCCCSP(=O)(OCC)OCC | 97.5 | 87.7 | 331 | 4.84
CCOP(=O)(OCC)SCCCCCCCCCSP(=O)(OCC)OCC | 100 | 78.6 | 197 | 1.43
CCOP(=O)(OCC)SCCCCCCCCCCSP(=O)(OCC)OCC | 96.6 | 93.3 | 224 | 1.76
CCOP(=O)(OCC)SCCCN1C(=O)c2ccccc2C1=O | 97.8 | 92.9 | 155 | 8.29
CCOP(=O)(OCC)SCCCCN1C(=O)c2ccccc2C1=O | 97.7 | 88.9 | 25.8 | 9.92
CCOP(=O)(OCC)SCCCCCN1C(=O)c2ccccc2C1=O | 96.5 | 81.2 | 114 | 12.3
CCOP(=O)(OCC)SCCCCCCN1C(=O)c2ccccc2C1=O | 100 | 87.3 | 9.42 | 3.81
CCOP(=O)(OCC)SCCCCCCCN1C(=O)c2ccccc2C1=O | 88 | 89.3 | 2.08 | 1.84
CCOP(=S)(OCC)Oc1nc(Cl)c(Cl)cc1Cl [CHLORPYRIFOS] | 100 | 71.1 | 9.51 | 1.83
CCOP(O)(=S)OCC [O,O-DIETHYL S-HYDROGEN PHOSPHOROTHIOATE] |  |  | > 25000 | > 40000
